Measured values from a melting point compilation (Tetko et al.).

**Q.** Which melting point does the source give for COc1ccc(OCc2cc(C(=O)O)c(C)o2)cc1 here?
**A.** 123 to 133 °C

**Q.** With CC(C)(C)NS(=O)(=O)c1cccc(N)c1 as the molecule, how does the melting point read?
**A.** 137 to 139 °C

**Q.** Which melting point does the source give for Cc1c(Cl)cc(S(N)(=O)=O)cc1[N+](=O)[O-] here?
**A.** 181 to 183 °C

**Q.** For Clc1ccc(C2CC2)nn1, which melting point is on record?
**A.** 103 to 105 °C

**Q.** For Cc1ccc(C(=O)NCC(=O)O)s1, which melting point is on record?
**A.** 66 to 68 °C

**Q.** Which melting point does the source give for O=C(O)c1ccc(S(=O)(=O)CC(F)F)cc1 here?
**A.** 212 to 214 °C

**Q.** With Cc1cc(Cl)c(C#N)c(C)n1 as the molecule, how does the melting point read?
**A.** 65 to 67 °C

**Q.** With O=C(O)CCNC(=O)CCC(=O)O as the molecule, how does the melting point read?
**A.** 132 to 134 °C

**Q.** Which melting point does the source give for Nc1c(Oc2ccc(Cl)cc2)ccc2ncccc12 here?
**A.** 124 to 126 °C

**Q.** With CCOc1ccc(C(=O)CC(=O)C(=O)OC)cc1 as the molecule, how does the melting point read?
**A.** 88 to 92 °C

**Q.** With CC(=Cc1ccc(Br)o1)[N+](=O)[O-] as the molecule, how does the melting point read?
**A.** 89 to 91 °C

**Q.** Which melting point does the source give for N#Cc1cccc(NC(=O)c2ccccc2F)c1 here?
**A.** 132 to 134 °C

**Q.** Which melting point does the source give for CC(N)c1cccc(NC(=O)c2ccccc2)c1 (configuration not stated) here?
**A.** 115 to 117 °C

**Q.** With Nc1ccc(C2(c3ccc(N)cc3)CCCCC2)cc1 as the molecule, how does the melting point read?
**A.** 110 to 112 °C

**Q.** Which melting point does the source give for CN1CCCN(c2ccc(C#N)cc2Cl)CC1 here?
**A.** 40 to 42 °C

**Q.** Which melting point does the source give for CN1N=C(c2ccncc2)CC1=O here?
**A.** 209 to 211 °C

**Q.** Which melting point does the source give for COCCn1cnnc1S here?
**A.** 79 to 81 °C

**Q.** With CNS(=O)(=O)c1cc(C(=O)O)ccc1OC as the molecule, how does the melting point read?
**A.** 221 to 223 °C

**Q.** For CS(=O)(=O)Nc1cccc(CN)c1, which melting point is on record?
**A.** 126 to 128 °C

**Q.** With O=C(O)c1cc(Cl)c(Cl)cc1C(=O)O as the molecule, how does the melting point read?
**A.** 201 to 203 °C

**Q.** With COc1ccc(C2C(C(=O)O)CC(=O)N2C2CC2)cc1 (configuration not stated) as the molecule, how does the melting point read?
**A.** 187 to 189 °C

**Q.** For Cc1cc(Oc2ncccn2)ccc1N, which melting point is on record?
**A.** 132 to 134 °C

**Q.** For N#Cc1ccsc1C(=O)O, which melting point is on record?
**A.** 191 to 193 °C

**Q.** For Nc1cccc(NC(=O)c2ccncc2)c1, which melting point is on record?
**A.** 185 to 187 °C

**Q.** For CSc1nc(N)cc(O)n1, which melting point is on record?
**A.** 279 to 281 °C

**Q.** With NC(=O)NC1CCCc2ccccc21 (configuration not stated) as the molecule, how does the melting point read?
**A.** 204 to 206 °C

**Q.** For Cc1cc(C(=O)O)cc(C)c1OC(F)F, which melting point is on record?
**A.** 189 to 191 °C

**Q.** With Fc1cccc(-c2nnc(CCl)o2)c1 as the molecule, how does the melting point read?
**A.** 65 to 67 °C

**Q.** For Nc1cc(C2CC2)nn1-c1ncccn1, which melting point is on record?
**A.** 144 to 146 °C

**Q.** For O=C(O)c1cccc(S(=O)(=O)CC(F)F)c1, which melting point is on record?
**A.** 170 to 172 °C

**Q.** Which melting point does the source give for Cc1cc(S(=O)(=O)Cl)ccc1OC(C)C here?
**A.** 50 to 52 °C

**Q.** Which melting point does the source give for Nc1ccc(-c2nc3ccccc3s2)cc1 here?
**A.** 149 to 151 °C

**Q.** With Nc1ccnc(CO)c1 as the molecule, how does the melting point read?
**A.** 99 to 101 °C

**Q.** For O=C(O)C1CCN(C=CC(=O)C(F)(F)F)CC1, which melting point is on record?
**A.** 135 to 137 °C

**Q.** With O=C(O)c1cccc(S(=O)(=O)NC2CCOC2=O)c1 (configuration not stated) as the molecule, how does the melting point read?
**A.** 220 to 222 °C

**Q.** With CCOC(=O)c1ccc(OCC#N)cc1 as the molecule, how does the melting point read?
**A.** 73 to 75 °C

**Q.** Which melting point does the source give for Cc1ncc(C=O)n1-c1ccccc1 here?
**A.** 64 to 66 °C

**Q.** With Cc1cc2oc(=O)cc(CCl)c2cc1C as the molecule, how does the melting point read?
**A.** 188 to 190 °C

**Q.** For CCCNc1c(N)n(Cc2ccccc2)c(=O)[nH]c1=O, which melting point is on record?
**A.** 210 to 212 °C

**Q.** Which melting point does the source give for Sc1nnc(SCc2ccccc2Cl)[nH]1 here?
**A.** 132 to 135 °C

**Q.** Which melting point does the source give for O=C(O)c1ccccc1SCc1nnnn1-c1ccccc1 here?
**A.** 170 to 174 °C

**Q.** For O=C(O)C1CCN(S(=O)(=O)c2ccccc2C(F)(F)F)CC1, which melting point is on record?
**A.** 127 to 129 °C

**Q.** For O=C(O)C(c1ccccc1)C1CC1 (configuration not stated), which melting point is on record?
**A.** 84 to 86 °C

**Q.** With CC1=C(C(=O)O)C(=O)OC1(C)C as the molecule, how does the melting point read?
**A.** 111 to 113 °C

**Q.** With CS(=O)(=O)c1ccc(S)cc1 as the molecule, how does the melting point read?
**A.** 63 to 65 °C

**Q.** Which melting point does the source give for Cc1cccc(OCC(=O)NN)c1 here?
**A.** 109 to 111 °C

**Q.** Which melting point does the source give for COC(=O)c1cc2c(F)cc(F)cc2[nH]1 here?
**A.** 198 to 200 °C

**Q.** Which melting point does the source give for CC(C)c1ccc2c(c1)C(=O)C(=O)N2 here?
**A.** 93 to 95 °C

**Q.** For CC(C)NC(=O)C(C#N)=CN(C)C, which melting point is on record?
**A.** 113 to 115 °C

**Q.** With CNC(C(=O)O)c1ccc(F)cc1F (configuration not stated) as the molecule, how does the melting point read?
**A.** 277 to 279 °C

**Q.** With Clc1ccc(-c2n[nH]cc2Br)cc1 as the molecule, how does the melting point read?
**A.** 140 to 142 °C

**Q.** With O=C(O)C(NCc1ccccc1)c1ccc(C(F)(F)F)cc1 (configuration not stated) as the molecule, how does the melting point read?
**A.** 230 to 232 °C

**Q.** For Cc1oc(C(=O)O)cc1C(=O)CCl, which melting point is on record?
**A.** 206 to 208 °C

**Q.** For Nc1ccc(Br)c(I)c1, which melting point is on record?
**A.** 74 to 76 °C

**Q.** Which melting point does the source give for CC1(C)CC(=O)OC1=O here?
**A.** 29 to 31 °C

**Q.** Which melting point does the source give for N#Cc1ccccc1Oc1ccc(CCl)cc1 here?
**A.** 54 to 56 °C

**Q.** Which melting point does the source give for Cc1cc(C)nc(-n2nc(C(=O)O)cc2C)n1 here?
**A.** 189 to 191 °C
